Measured values published in patent publication US20170226518A1, “COMPOSITIONS AND METHODS FOR TREATING CANCER” (Autotelic LLC, priority 2016, published 2017).
In the oligonucleotide strings, read from the 5' end, every base follows the letter of its sugar. An asterisk marks phosphorothioate; unmarked linkages are phosphodiester. Other units and linkages are bracketed, terminal groups are in braces. A string of capitals states the bases alone. d = 2'-deoxy (DNA)

What was measured:
[1] = system: HUP-T3 pancreatic cancer cells; assay: Cellular proliferation of HUP-T3 pancreatic cancer cells in vitro; type: cell-based; details: 10 μM AP12009 as monotherapy
Method: (§1) The aim of the study was to determine the effect of AP12009 (trabedersen) treatment in combination with 5-Fluorouracil (5-FU) on TGFβ2 secretion and on cellular proliferation of HUP-T3 pancreatic cancer cells and WiDr colon cancer cells in vitro.
10 μM of AP12009 as monotherapy decreased cell proliferation (53% proliferation of untreated control) and TGFβ2 expression (42% of untreated control) in HUP-T3 cells.

TGFβ2 [2] = assay: TGFβ2 secretion/expression in WiDr colon cancer cells; type: cell-based; details: 10 μM AP12009
Description: as §1

TGFβ2 [3] = assay: TGFβ2 secretion in A-172 glioma cells; type: cell-based; details: 7 days, treatment schedule 2*2/1*3 d
Method: A-172 glioma cells were treated with a combination of AP12009 (trabedersen) 0 to 10 μM) and different concentrations of TMZ (temozolomide) for 7 days (treatment schedule 2*2/1*3 d).
In summary there is no clear beneficial effect in combining AP12009 with TMZ in A-172 cells.

[4] = Preclinical toxicology in Cynomolgus monkeys (LOAEL); type: in vivo
Method: The clinical starting dose for the 7-days-on and 7-days-off schedule was based on the Lowest-Observed-Adverse-Effect-Level (LOAEL) devoid of severe toxicity in Cynomolgus monkeys as the most relevant species. This LOAEL of 4 mg/kg body weight (b.w.)/day is equivalent to approximately 1.3 mg/kg b.w./day or 48 mg/m^2/day on a body surface area basis in human adults. These numbers were rounded down and the safe starting dose was defined at 40 mg/m^2/day, equivalent to approximately 1 mg/kg b.w./day in humans. An alternative approach would have been based on the lowest lethal dose (LLD) of 300 mg/kg b.w. obtained in the acute single dose toxicity study in mice (in rats it was determined at 1000 mg/kg), at which 1 of 10 mice died (LLD10). According to the standard method, 10% of this dose (30 mg/kg) on a body surface area basis would then be defined as the clinical starting dose resulting in 90 mg/m^2/day. In the end, the lower of the two alternatives was chosen as starting dose.

pancreatic cancer = assay: Phase I/II study P-001: PFS and OS in pancreatic cancer patients; type: in vivo, human; details: for OS: pancreatic cancer; for OS (overall survival) / PFS (progression free survival): second line pancreatic cancer patients, 4 days on and 10 days off
Method: (§2) At screening, up to 10 “measurable lesions” (i.e. lesions that could be accurately measured in at least 1 dimension with a longest diameter of 2 cm) representative of all involved organs were identified as “target lesions” for tumor response assessment and were measured and documented. All other lesions were defined and recorded as “non-target lesions”. Tumor response was determined by the local investigator every 8 weeks after start of the first trabedersen cycle during follow-up visits, irrespective of whether the patient was still on treatment or off treatment. The tumor assessment was based on Response Evaluation Criteria in Solid Tumors (RECIST 1.0) criteria. The categories of overall tumor response are as follows: (1) Complete response (CR): disappearance of all target and non-target lesions and normalization of tumor marker level; (2) Partial response (PR): at least 30% decrease in the sum of the longest diameter (LD) of target lesions (baseline sum LD as reference) and/or persistence of one or more non-target lesions and/or maintenance of tumor marker level above normal limits; (3) Stable disease (SD): less than 30% decrease or less than 20% increase in sum LD target lesions (smallest sum LD since treatment start as reference) and/or persistence of one or more non-target lesions and/or maintenance of tumor marker level above normal limits; (4) Progressive disease (PD) At least 20% increase in sum LD target lesions (smallest sum LD since treatment start as reference) and/or unequivocal progression of existing nontarget lesions and/or appearance of one or more new lesions; and (5) Unknown.
(§3) Progression-free survival (PFS) was defined as the time from Day 1 until tumor progression or death from any cause. The date of progression was either the date of the image showing progression or the date of treatment termination in case one of the reasons for treatment termination was tumor progression (referring to clinical progression as assessed by the Investigator), whichever occurred first.
Overall survival (OS) was defined as the time from Day 1 until death from any cause. All patients were followed for survival during the follow-up assessments every 8 weeks. The survival status was documented at the Final Visit (Day 29) and during the 8-weekly post-treatment follow-up assessments, and was continued to be collected after study closure until database lock or until the patient was lost to follow-up.
There were […] line patients and 11 third line and beyond on the 4 days on and 10 days off regimen. The PFS/OS (progression free survival/overall survival ratio) of these second line patients in months were: 1.87/5.60 (N=6), 1.87/9.93 (N=11) and 2.72/11.80 (N=5) at increasing mean dose of 140 mg/m^2/day, 167 mg/m^2/day, and 196 mg/m^2/day, respectively. The OS of 9.93 and 11.80 are higher than the highest reported in the 65 trials reported in the literature during 1997-2015 (range=2.50-9.20/median=5.50). The corresponding PFS values were in line with reported literature (range=0.00-7.65/median=2.43). […] Trabedersen itself was not having an impact on the tumor (FIG. 1).

melanoma = assay: Phase I/II study P-001: PFS and OS in melanoma patients; type: in vivo, human
Method: as §2, §3
Overall survival (OS) was defined as the time from Day 1 until death from any cause. All patients were followed for survival during the follow-up assessments every 8 weeks. […]
The primary objective was to determine the maximum tolerated dose (MTD) and the dose-limiting toxicity (DLTs) of two cycles of trabedersen administered intravenously (i.v.) for 7 days (7 days on and 7 days off) or for 4 days every other week (4 days on and 10 days off). The secondary objectives included assessment of the potential antitumor activity of trabedersen administered i.v. at weekly intervals and for four days every other week, as assessed by survival. […]

[5] = system: C8161 human melanoma cells; assay: C8161 melanoma xenograft model: tumor growth and survival
Method: Sixty female athymic nude mice were intradermally inoculated with C8161 human melanoma cells and randomized into six groups of 10 mice. Three groups received monotherapy treatment with either OT-101 (trabedersen) (16 mg/kg) (Group 2) or Dacarbazine (DTIC; 1 or 10 mg/kg; Groups 3, 4). Two groups received combination therapy with OT-101/DTIC at 16/1 mg/kg or 16/10 mg/kg (Groups 5 and 6). Vehicle (0.9% saline, Groups 1, 3, and 4) and OT-101 were administered 3 times/week via subcutaneous injection. Vehicle (0.9% saline, Groups 1 and 2) and DTIC (1 or 10 mg/kg) were administered via intraperitoneal injection four times/week. All OT-101/Trabedersen treatments commenced at day 0 of the study and all DTIC treatments commenced on day 14. Mice were monitored for adverse effects, body weight and tumor size three times weekly. The tumor, lungs, liver and kidneys were excised from all mice at termination and weighed.

[6] = mean dose 167 mg/m^2/day (N=11)

## trabedersen: TGFβ2 specific phosphorothioate antisense oligodeoxynucleotide with the sequence 5′-CGGCATGTCTATTTTGTA-3′ (SEQ ID No: 1) (antisense dC*dG*dG*dC*dA*dT*dG*dT*dC*dT*dA*dT*dT*dT*dT*dG*dT*dA)
[1]
  cell proliferation (% proliferation of untreated control): 53%
TGFβ2 [2]
  TGFβ2 expression (% of untreated control): 54%
TGFβ2 [3]
  effect on TGFβ2 secretion: strongly reduced TGFβ2
[4]
  Lowest-Observed-Adverse-Effect-Level (LOAEL) devoid of severe toxicity: 4 mg/kg body weight (b.w.)/day
Pancreatic cancer; pancreatic cancer patients, trabedersen as second line treatment (FIG. 1)
  overall survival (OS) rate versus dose: dose dependent increase
Pancreatic cancer; 4/10 cohort treated with subsequent chemotherapies
  OS: 14.7 mos
Pancreatic cancer; 4/10 cohort without subsequent chemotherapies
  OS: 2.93 mos
Pancreatic cancer; chemotherapy on 2nd line followed with trabedersen 4/10 regimen as third line (N=9)
  OS: 2.80 mos
Pancreatic cancer; trabedersen first on 2nd line followed with subsequent therapies (N=11)
  OS: 9.93 mos
Pancreatic cancer; mean dose 140 mg/m^2/day (N=6)
  OS (overall survival): 5.60 months
  PFS (progression free survival): 1.87 months
Pancreatic cancer; [6]
  OS (overall survival): 9.93 months
  PFS (progression free survival): 1.87 months
Pancreatic cancer; mean dose 196 mg/m^2/day (N=5)
  OS (overall survival): 11.80 months
  PFS (progression free survival): 2.72 months
melanoma; 15 patients
  Median progression free survival (PFS): 1.77 mos
melanoma; all doses, 19 patients
  median OS: 11.4 mos
melanoma; trabedersen followed by subsequent chemotherapy (N=9)
  OS: 13.70 mos
melanoma; without subsequent chemotherapy (N=7)
  OS: 5.5 mos
[5]; day 42, group 2: OT-101 16 mg/kg s.c. 3 times/week from day 0
  Tumor growth suppressed relative to control group 1: 2%
[5]; group 2: OT-101 16 mg/kg, sacrifice at tumor size 2,000 mm^3
  median survival: 47 days
